From paper PMC12079242, “Design, Synthesis, Biological Evaluation, and Molecular Docking Studies of Novel 1,3,4-Thiadiazole Derivatives Targeting Both Aldose Reductase and α-Glucosidase for Diabetes Mellitus” (ACS Omega, 2025)

Key:
[1] = biological target: α-Glucosidase from Saccharomyces cerevisiae; assay: α-Glycosidase inhibition assay with pNPG substrate; type: biochemical; conditions: for Ki: Lineweaver–Burk plots, read-out: α-GLY KI; for IC50: mean ± SEM, read-out: α-GLY IC50
Protocol: α-Glucosidase activity (α-Glucosidase from Saccharomyces cerevisiae) was assessed using p-nitrophenyl-D-glycopyranoside (pNPG) as the substrate, following the procedure outlined by Tao et al.[60],[61] Initially, 100 μL of phosphate buffer was mixed with 20 μL of the enzyme solution (0.15 U/mL, pH 6.8) and 10–100 μL (0.01–1 mg/mL^–1) of the sample. To ensure complete enzyme inhibition, multiple solutions were prepared in phosphate buffer. The mixture was preincubated at 35 °C for 12 min before the reaction was initiated by adding pNPG. Subsequently, 50 μL of pNPG solution (5.0 mM, pH 7.4) was added and incubated at 37 °C. Absorbance was measured spectrophotometrically at 405 nm.
Furthermore, the types of inhibition and inhibition constants (KI) were calculated from Lineweaver–Burk plots, providing detailed insights into the kinetic properties of these inhibitors.[62],[63]

[2] = test system: S. typhimurium TA mix; assay: Ames II mutagenicity test, TA mix; type: cell-based, Salmonella typhimurium; conditions: for Average number of the positive wells: TA Mix; for mutagenicity: TA mix strain
Protocol: (§1) Ames II Mutagenicity Assay Kit BioReliance and Moltox (Moltox, Boone, NC) kit were used in the experiment and the experiment was performed completely according to the kit procedure.[68]S. typhimurium TA 98 (hisD3052) and TA mix (hisG1775, hisC9138, hisG9074, hisG9133, hisG9130, hisC9070) strains were incubated in 50 mL tubes containing 10 mL growth medium at 37 °C for 24 h. At the end of the time, the OD600 value of the suspension was measured. Since the OD600 value ≥ 2.0, the experimental procedure was continued. The dilutions of 10 μL of compound 6h at 75, 37.5, 18.75, 9.4, 4.7 μM and compound 6o at […] were prepared at 5 different concentrations of the test substances dissolved in DMSO. The exposure plates (24 wells) with and without the S9 enzyme fraction were prepared for both strains. The exposure medium, bacteria, and test substance were added to the plates without S9 enzyme fraction in the amounts specified in the procedure; S9 enzyme fraction was added to the plates containing S9 enzyme fraction and incubated at 37 °C, 250 rpm for 90 min with shaking. At the end of the incubation period, […] of purple colored indicator medium specific for bacterial strains was added to each well of the plate. 4-Nitroquinoline-N-Oxide (4-NQO) - 2-Nitrofluorene (2-NF), and 2-Aminoanthracene (2-AA) were used as positive control and only DMSO was used as negative control. The contents of 50 μL in each well were transferred to 384 plates according to the determined experimental design and incubated at 37 °C for 48 h. At the end of the incubation period, bacterial metabolism in the plates changes the pH and changes the purple color to yellow. The number of yellow wells formed at the end of the experiment was determined as positive wells and the genotoxic properties of the substances were interpreted. Means and SD values of positive wells were calculated.[69]

[3] = test system: S. typhimurium TA 98; assay: Ames II mutagenicity test, TA 98; type: cell-based, Salmonella typhimurium
Protocol: as §1

[4] = test system: L929 fibroblast cell line; assay: MTT cell viability assay; type: cell-based; conditions: Mus musculus; L929, 24 h incubation, 5–100 μM
Protocol: Healthy mouse fibroblast cell line (L929) was obtained from ATCC (American Type Culture Collection) and studied. Cells were mixed with 89% DMEM (Dulbecco’s modified Eagle’s medium; Gibco, Thermo Fisher Scientific), 10% FBS (Fetal Bovine Serum; Sigma-Aldrich) and 1% penicillin (Sigma-Aldrich) solutions. The cells in which the medium was added were allowed to grow by incubating at 37 °C in an environment containing 95% humidity and 5% CO2.[66],[67]
The cytotoxic effects of all syntheses by MTT analysis on L929 cell line was investigated. 96-well plates were used for seeding cells. Approximately 1 × 10^4 cells were seeded in each well. Cells were allowed to adhere for 24 h and then the syntheses were applied at different concentrations (5–100 μM). After adding syntheses at different concentrations, the wells were incubated for 24 h. All wells without syntheses were used as controls. After the incubation, the wells were treated with MTT solution to determine metabolically active cells and incubated at 37 °C for 3 h. After the MTT interaction, the wells were emptied and DMSO solution was placed in them. The formazan crystals formed were dissolved with this solution and the number of viable cells in each well was determined by color change. The absorbance values were read at 540 nm with the help of a microplate and the values found were represented as mean ± standard deviation (±SD).[66],[67]

CCNc1nnc(SCC(=O)N(Cc2ccc([N+](=O)[O-])cc2)c2ccc(Cl)cc2)s1 [6a, N-(4-Chlororophenyl)-2-[(5-(ethylamino)-1,3,4-thiadiazol-2-yl)thio]-N-(4-nitrobenzyl) Acetamide]
Ki [1]: 11.9 ± 0.62 µM
IC50 [1]: 12.6 ± 0.75 µM

CCCNc1nnc(SCC(=O)N(Cc2ccc([N+](=O)[O-])cc2)c2ccc(F)cc2)s1 [6k, N-(4-Fluorophenyl)-2-[(5-(propylamino)-1,3,4-thiadiazol-2-yl)thio]-N-(4-nitrobenzyl) Acetamide]
IC50 [1]: > 500 µM

O=C(CSc1nnc(Nc2ccccc2)s1)N(Cc1ccc([N+](=O)[O-])cc1)c1ccc(F)cc1 [6p, N-(4-Fluorophenyl)-2-[(5-(phenylamino)-1,3,4-thiadiazol-2-yl)thio]-N-(4-nitrobenzyl)acetamide]
Ki [1]: 8.38 ± 0.12 µM
IC50 [1]: 8.25 ± 0.56 µM

COCCNc1nnc(SCC(=O)N(Cc2ccc([N+](=O)[O-])cc2)c2ccc(F)cc2)s1 [6j, N-(4-Fluorophenyl)-2-[(5-((2-methoxyethyl)amino)-1,3,4-thiadiazol-2-yl)thio]-N-(4-nitrobenzyl) Acetamide]
Ki [1]: 15.9 ± 0.92 µM
IC50 [1]: 16.5 ± 0.93 µM

CC(C)Nc1nnc(SCC(=O)N(Cc2ccc([N+](=O)[O-])cc2)c2ccc(F)cc2)s1 [6l, N-(4-Fluorophenyl)-2-[(5-(isopropylamino)-1,3,4-thiadiazol-2-yl)thio]-N-(4-nitrobenzyl)acetamide]
IC50 [1]: > 500 µM

Cc1ccc(Nc2nnc(SCC(=O)N(Cc3ccc([N+](=O)[O-])cc3)c3ccc(Cl)cc3)s2)cc1 [6h, N-(4-Chlororophenyl)-2-[(5-(4-methylphenylamino)-1,3,4-thiadiazol-2-yl)thio]-N-(4-nitrobenzyl) Acetamide]
Average number of the positive wells ([2]; S9+, 4.7 μM): 0
Average number of the positive wells ([2]; S9+, 9.4 μM): 0
Average number of the positive wells ([2]; S9+, 18.75 μM): 0
Average number of the positive wells ([2]; S9+, 37.5 μM): 0
Average number of the positive wells ([2]; S9+, 75 μM): 8
Average number of the positive wells ([2]; S9–, 4.7 μM): 0
Average number of the positive wells ([2]; S9–, 9.4 μM): 0
Average number of the positive wells ([2]; S9–, 18.75 μM): 0
Average number of the positive wells ([2]; S9–, 37.5 μM): 0
Average number of the positive wells ([2]; S9–, 75 μM): 5
mutagenicity ([2]; presence and absence of S9, 75 μM): mutagenicity was detected
Ki [1]: 4.48 ± 0.25 µM
IC50 [1]: 4.68 ± 0.23 µM
Average number of the positive wells ([3]; TA 98, S9+, 4.7 μM): 0
Average number of the positive wells ([3]; TA 98, S9+, 9.4 μM): 0
Average number of the positive wells ([3]; TA 98, S9+, 18.75 μM): 0
Average number of the positive wells ([3]; TA 98, S9+, 37.5 μM): 0
Average number of the positive wells ([3]; TA 98, S9+, 75 μM): 0
Average number of the positive wells ([3]; TA 98, S9–, 4.7 μM): 0
Average number of the positive wells ([3]; TA 98, S9–, 9.4 μM): 0
Average number of the positive wells ([3]; TA 98, S9–, 18.75 μM): 0
Average number of the positive wells ([3]; TA 98, S9–, 37.5 μM): 0
Average number of the positive wells ([3]; TA 98, S9–, 75 μM): 0

O=C(CSc1nnc(NC2CCCCC2)s1)N(Cc1ccc([N+](=O)[O-])cc1)c1ccc(F)cc1 [6o, N-(4-Fluorophenyl)-2-[(5-(cyclohexylamino)-1,3,4-thiadiazol-2-yl)thio]-N-(4-nitrobenzyl)acetamide]
Average number of the positive wells ([2]; S9+, 3.125 nM): 0
Average number of the positive wells ([2]; S9+, 6.25 nM): 0
Average number of the positive wells ([2]; S9+, 12.5 nM): 0
Average number of the positive wells ([2]; S9+, 25 nM): 0
Average number of the positive wells ([2]; S9+, 50 nM): 15.3
Average number of the positive wells ([2]; S9–, 3.125 nM): 0
Average number of the positive wells ([2]; S9–, 6.25 nM): 0
Average number of the positive wells ([2]; S9–, 12.5 nM): 0
Average number of the positive wells ([2]; S9–, 25 nM): 0
Average number of the positive wells ([2]; S9–, 50 nM): 15.3
mutagenicity ([2]; presence and absence of S9, 50 nM): mutagenicity was detected
Ki [1]: 12.5 ± 1.08 µM
IC50 [1]: 34.6 ± 1.78 µM
Average number of the positive wells ([3]; TA 98, S9+, 3.125 nM): 0
Average number of the positive wells ([3]; TA 98, S9+, 6.25 nM): 0
Average number of the positive wells ([3]; TA 98, S9+, 12.5 nM): 0
Average number of the positive wells ([3]; TA 98, S9+, 25 nM): 0
Average number of the positive wells ([3]; TA 98, S9+, 50 nM): 0
Average number of the positive wells ([3]; TA 98, S9–, 3.125 nM): 0
Average number of the positive wells ([3]; TA 98, S9–, 6.25 nM): 0
Average number of the positive wells ([3]; TA 98, S9–, 12.5 nM): 0
Average number of the positive wells ([3]; TA 98, S9–, 25 nM): 0
Average number of the positive wells ([3]; TA 98, S9–, 50 nM): 0

CC(C)CNc1nnc(SCC(=O)N(Cc2ccc([N+](=O)[O-])cc2)c2ccc(Cl)cc2)s1 [6e, N-(4-Chlororophenyl)-2-[(5-(isobutylamino)-1,3,4-thiadiazol-2-yl)thio]-N-(4-nitrobenzyl) Acetamide]
Ki [1]: 96.5 ± 6.15 µM
IC50 [1]: 99 ± 7.37 µM

O=C(CSc1nnc(NC2CCCCC2)s1)N(Cc1ccc([N+](=O)[O-])cc1)c1ccc(Cl)cc1 [6f, N-(4-Chlororophenyl)-2-[(5-(cyclohexylamino)-1,3,4-thiadiazol-2-yl)thio]-N-(4-nitrobenzyl) Acetamide]
Ki [1]: 342 ± 22.4 µM
IC50 [1]: 347 ± 18.3 µM

Cc1ccc(Nc2nnc(SCC(=O)N(Cc3ccc([N+](=O)[O-])cc3)c3ccc(F)cc3)s2)cc1 [6q, N-(4-Fluorophenyl)-2-[(5-(4-methylphenylamino)-1,3,4-thiadiazol-2-yl)thio]-N-(4-nitrobenzyl) Acetamide]
Ki [1]: 7.86 ± 0.62 µM
IC50 [1]: 8.15 ± 0.48 µM

CCCCNc1nnc(SCC(=O)N(Cc2ccc([N+](=O)[O-])cc2)c2ccc(F)cc2)s1 [6m, N-(4-Fluorophenyl)-2-[(5-(butylamino)-1,3,4-thiadiazol-2-yl)thio]-N-(4-nitrobenzyl) Acetamide]
IC50 [1]: > 500 µM

O=C(CSc1nnc(Nc2ccccc2)s1)N(Cc1ccc([N+](=O)[O-])cc1)c1ccc(Cl)cc1 [6g, N-(4-Chlororophenyl)-2-[(5-(phenylamino)-1,3,4-thiadiazol-2-yl)thio]-N-(4-nitrobenzyl) Acetamide]
IC50 [4]: 99.5 ± 5.66 µM
Ki [1]: 12 ± 0.97 µM
IC50 [1]: 12.2 ± 0.87 µM

Nc1ccc2cc3ccccc3cc2c1 [2-AA, 2-Aminoanthracene, reference compound]
Average number of the positive wells ([2]; S9+, positive control): 16
Average number of the positive wells ([2]; S9–, positive control): 16
Average number of the positive wells ([3]; TA 98, S9+, positive control): 16
Average number of the positive wells ([3]; TA 98, S9–, positive control): 16
